What is called IC50 is the point on the concentration scale where inhibition reaches its midpoint.

This experiment concerns the target human URAT1 (Homo sapiens (Human), UniProt Q96S37). The experiment is described as follows: Inhibition of 14C-uric acid absorption in URAT1 cell model (HEK-293T cells transfected with human URAT1). The format is cell-based. The settings on record: HEK-293T cells transfected with human URAT1, 14C-uric acid uptake, 5 min, 37 degrees; read-out: URAT1 IC50 Activity level. How it is done:
After 5 min, the buffer was removed from cell wells, added with 100 microliter of ice-cold and no chloride ions-containing HBSS buffer to gently rinse cells within wells so as to stop them from absorbing ^14C-uric acid, the rinsing was repeated 3 times in the same manner. 150 microliter of cell lysate (100 mM of NaOH) was added in each well. Cell plate was placed on a vibrating plate and vibrated for 10 min at a speed of 600 rpm such that the cells were completely lysed. The cell plate was put in a centrifuge and spun for 5 min at a speed of 1000 rpm, then 45 microliter of supernatant was sucked out from each well and transferred to 96-well plate (Isoplate-96 Microplate from PerkinElmer). In the new 96-well plate, 150 microliter of Ultima Gold XR scintillation solution was added in each well. The 96-well plate was vibrated for 10 min at a speed of 600 rpm on a vibrating plate. Finally, the 96-well plate was put in a MicroBeta Trilux Counter from PerkinElmer and was read, then IC50 values were calculated, and the results are shown in Table 1 below. Wherein

human URAT1, sequence (Q96S37 whole entry): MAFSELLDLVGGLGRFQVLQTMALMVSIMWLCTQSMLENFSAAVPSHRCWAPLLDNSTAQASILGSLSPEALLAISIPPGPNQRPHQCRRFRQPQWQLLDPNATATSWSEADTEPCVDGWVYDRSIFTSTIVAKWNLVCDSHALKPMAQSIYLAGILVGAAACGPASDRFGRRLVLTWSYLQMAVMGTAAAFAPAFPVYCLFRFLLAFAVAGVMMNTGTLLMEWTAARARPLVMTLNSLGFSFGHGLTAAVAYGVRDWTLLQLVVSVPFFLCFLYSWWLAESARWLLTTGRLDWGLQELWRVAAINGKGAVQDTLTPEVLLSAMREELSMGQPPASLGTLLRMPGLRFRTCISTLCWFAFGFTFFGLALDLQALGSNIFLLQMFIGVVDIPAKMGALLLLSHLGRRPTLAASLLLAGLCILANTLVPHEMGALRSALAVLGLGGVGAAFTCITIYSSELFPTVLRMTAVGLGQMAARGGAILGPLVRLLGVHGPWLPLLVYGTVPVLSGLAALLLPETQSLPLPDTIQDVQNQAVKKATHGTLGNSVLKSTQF

For `N#Cc1ccc(-c2cnccc2SCC2(C(=O)O)CC2)c2ccccc12` [Compound 1, 1-(((3-(4-cyanonaphthalen-1-yl)pyridin-4-yl)thio)methyl)cyclopropanecarboxylic acid], the IC50 is less than 100 nM.

For `N#Cc1ccc(-c2cnccc2SCCC(=O)O)c2ccccc12` [Compound 2], the IC50 is 100 to 1000 nM. The value for `N#Cc1ccc(-c2cnccc2SCCCC(=O)O)c2ccccc12` [Compound 3] was less than 100 nM; that for `N#Cc1ccc(-c2cnccc2SCC2(CC(=O)O)CC2)c2ccccc12` [Compound 4, 2-(1-(((3-(4-cyanonaphthalen-1-yl)pyridin-4-yl)thio)methyl)cyclopropyl)acetic acid] was less than 100 nM; that for `N#Cc1ccc(-c2cnccc2SC[C@H]2C[C@@H](C(=O)O)C2)c2ccccc12` [Compound 5] was 100 to 1000 nM. Consider `N#Cc1ccc(-c2cnccc2SC[C@H]2C[C@H](C(=O)O)C2)c2ccccc12` [Compound 6], for which the concentration for half-maximal inhibition (IC50) was more than 1000 nM. Consider `N#Cc1ccc(-c2cnccc2S[C@H]2C[C@H](C(=O)O)C2)c2ccccc12` [Compound 7], for which the IC50 was 100 to 1000 nM. In the case of `CC(C)(Sc1ccncc1-n1cc(C#N)c2ccccc21)C(=O)O` [Compound 8, 2-((3-(3-cyano-1H-indol-1-yl)pyridin-4-yl)thio)-2-methylpropanoic acid], the IC50 was more than 1000 nM. The value for `CC(C)(Sc1ccncc1-n1nc(C2CC2)c2ccccc21)C(=O)O` [Compound 9] was more than 1000 nM; that for `CC(C)(Sc1ccncc1-c1ncc(C#N)c2ccccc12)C(=O)O` [Compound 10, 2-((3-(4-cyanoisoquinolin-1-yl)pyridin-4-yl)thio)-2-methylpropanoic acid] was more than 1000 nM; that for `N#Cc1ccc(-c2ccccc2SCC2(CC(=O)O)CC2)cc1` [Compound 11, 2-(1-((2-(4-cyanophenyl)phenylthio)methyl)cyclopropyl)acetic acid] was less than 100 nM. As to `N#Cc1ccc(-c2cnccc2SCCC(F)(F)C(=O)O)c2ccccc12` [Compound 12], the IC50 lay within 100 to 1000 nM. The value for `N#Cc1ccc(-c2cnccc2Sc2ccccc2C(=O)O)c2ccccc12` [Compound 13] was 100 to 1000 nM; that for `N#Cc1ccc(-c2cnccc2Sc2cccc(C(=O)O)c2)c2ccccc12` [Compound 14] was 100 to 1000 nM. As to `N#Cc1ccc(-c2cnccc2Sc2ccc(C(=O)O)cc2)c2ccccc12` [Compound 15], the IC50 is 100 to 1000 nM. Turning to `N#Cc1ccc(-c2cnccc2SCC2(C(=O)O)CCCC2)c2ccccc12` [Compound 16], the IC50 was less than 100 nM. Under `N#Cc1ccc(-c2cnccc2SCC2(C(=O)O)CCC2)c2ccccc12` [Compound 17, 1-(((3-(4-cyanonaphthalen-1-yl)pyridin-4-yl)thio)methyl)cyclobutanecarboxylic acid] stands less than 100 nM. The value for `CC(C)(CCC(=O)O)Sc1ccncc1-c1ccc(C#N)c2ccccc12` [Compound 18, 4-((3-(4-cyanonaphthalen-1-yl)pyridin-4-yl)thio)-4-methylpentanoic acid] was less than 100 nM. On to `Cc1cc(C#N)cnc1-c1cnccc1SC(C)(C)C(=O)O` [Compound 19], for which the half-inhibitory concentration (IC50) is more than 1000 nM. The value for `N#Cc1ccc(-c2cnccc2SCC2(CC(=O)O)CC2)cc1` [Compound 20, 2-(1-(((3-(4-cyanophenyl)pyridin-4-yl)thio)methyl)cyclopropyl)acetic acid] was less than 100 nM; that for `O=C(O)CC1(CSc2ccncc2-c2ccc(CO)cc2)CC1` [Compound 22, 2-(1-((3-(4-(hydroxymethyl)phenyl)pyridin-4-ylthio)methyl)cyclopropyl)acetic acid] was 100 to 1000 nM. Consider `N#Cc1ccc(-c2cnccc2NCC(=O)O)c2ccccc12` [Compound 24, 2-(3-(1-cyanonaphthalen-4-yl)pyridin-4-ylamino)acetic acid], for which the IC50 is more than 1000 nM. For `CC(C)(Nc1ccncc1-c1ccc(C#N)c2ccccc12)C(=O)O` [Compound 25], the half-inhibitory concentration (IC50) was more than 1000 nM. In the case of `N#Cc1ccc(-c2cnccc2NCCC(=O)O)c2ccccc12` [Compound 26], the IC50 is more than 1000 nM. As for `N#Cc1ccc(-c2cnccc2NCCCC(=O)O)c2ccccc12` [Compound 27], the concentration for half-maximal inhibition (IC50) was more than 1000 nM. The value for `N#Cc1ccc(-c2cnccc2NCC(=O)O)cc1` [Compound 28] was more than 1000 nM; that for `N#Cc1ccc(-c2cnccc2OCC2(CC(=O)O)CC2)cc1` [Compound 29, 2-(1-(((3-(4-cyanophenyl)pyridin-4-yl)oxy)methyl)cyclopropyl)acetic acid] was more than 1000 nM. The value for `N#Cc1ccc(-c2cnccc2OCC2(CC(=O)O)CC2)c2ccccc12` [Compound 30] was more than 1000 nM.

In the case of `CC(C)(Oc1ccncc1-c1ccc(C#N)cc1)C(=O)O` [Compound 31, 2-(3-(4-cyanophenyl)pyridin-4-yloxy)-2-methylpropanoic acid], the IC50 was more than 1000 nM.

As to `N#Cc1ccc(-c2cnccc2CCC(=O)O)c2ccccc12` [Compound 32, 3-(3-(4-cyanonaphthalen-1-yl)pyridin-4-yl) propanoic acid], the IC50 is more than 1000 nM. As to `CC(C)(Sc1ccncc1-c1ccc(C2(O)CC2)cc1)C(=O)O` [Compound 33, 2-((3-(4-(1-hydroxycyclopropyl)phenyl)pyridin-4-yl)thio)-2-methylpropanoic acid], the IC50 lay in the range of 100 to 1000 nM. On to `O=C(O)CC1(CSc2ccncc2-c2ccc(C3(O)CC3)cc2)CC1` [Compound 34, 2-(1-(((3-(4-(1-hydroxycyclopropyl)phenyl)pyridin-4-yl)thio)methyl)cyclopropyl)acetic acid], for which the IC50 was in the range of 100 to 1000 nM. Turning to `CC(C)(Sc1ccncc1-c1ccc(C2(O)COC2)cc1)C(=O)O` [Compound 35, 2-((3-(4-(3-hydroxyoxetan-3-yl)phenyl)pyridin-4-yl)thio)-2-methylpropanoic acid], the IC50 was in the range of 100 to 1000 nM. The value for `O=C(O)CC1(CSc2ccncc2-c2ccc(C3(O)COC3)cc2)CC1` [Compound 36, 2-(1-(((3-(4-(3-hydroxyoxetan-3-yl)phenyl)pyridin-4-yl)thio)methyl)cyclopropyl)acetic acid] was more than 1000 nM; that for `CC(C)(Sc1ccncc1-c1ccc(C#N)cn1)C(=O)O` [Compound 37, 2-((5-cyano-[2,3′-bipyridine]-4′-yl)thio)-2-methylpropanoic acid] was more than 1000 nM. The value for `N#Cc1ccc(-c2cnccc2SCC2(CC(=O)O)CC2)nc1` [Compound 38, 2-(1-(((5-cyano-2,3′-bipyridin-4′-yl)thio)methyl)cyclopropyl)acetic acid] was more than 1000 nM; that for `O=C(O)CC1(CSc2ccncc2-c2ccc(C(=O)O)cn2)CC1` [Compound 39, 4′-(((1-(carboxymethyl)cyclopropyl)methyl)thio)-[2,3′-bipyridine]-5-carboxylic acid] was more than 1000 nM; that for `[2H]C([2H])([2H])C(Sc1ccncc1-c1ccc(C#N)c2ccccc12)(C(=O)O)C([2H])([2H])[2H]` [Compound 40, di(methyl-d3)-2-((3-(4-cyanonaphthalen-1-yl)pyridin-4-yl)thio)acetic acid] was less than 100 nM.

As for `[2H]C([2H])([2H])C(C)(Sc1ccncc1-c1ccc(C#N)c2ccccc12)C(=O)O` (stereo not drawn) [Compound 41, 2-methyl-d3-2-((3-(4-cyanonaphthalen-1-yl)pyridin-4-yl)thio) propanoic acid], the 50% inhibitory concentration (IC50) was less than 100 nM.

(Values after patent publication US9856239B1, “Carboxylic acid compound, method for preparation thereof, and use thereof” (INVENTISBIO SHANGHAI LTD., priority 2014, dated 2018).)
